Experimental data from publication PMC9603901, “Therapeutic Potential of Antimicrobial Peptide PN5 against Multidrug-Resistant E. coli and Anti-Inflammatory Activity in a Septic Mouse Model” (Microbiology Spectrum, 2022).
Where no end group is shown, it is not given here.

Key:
[1] = system: B. subtilis KCTC 2217; type: cell-based, Bacillus subtilis; settings: microdilution, LB, 18 to 24 h, 37°C, three independent experiments
Procedure: (§1) Bacterial cells were cultured at 37°C in the appropriate culture media with shaking (180 rpm). Luria-Bertani broth (LB) (244620; BD Difco) was used for E. coli ATCC 25922, ASEC strains, and B. subtilis KCTC 2217. Nutrient broth (NB) (234000; BD Difco) was used for P. aeruginosa ATCC 27853, S. Typhimurium KCTC 1926, and A. baumannii KCTC 2508. Tryptic soy broth (TSB) (211825; BD Difco) was used for S. aureus ATCC 25923. Finally, brain heart infusion (BHI) (237500; BD Difco) was used for L. monocytogenes KCTC 3710. The antimicrobial activity of each peptide was determined using microdilution assays. To this end, 2-fold serial dilution series of each peptide (from 1 to 64 μM) were added to duplicate media with 10 mM sodium phosphate buffer (pH 7.4). Fifty microliters of the peptide and antibiotic solution was added to each well of a 96-well plate (32096, surface nontreatment; SPL Life Sciences). Then, 50 μL of 2 × 10^5 CFU mL^−1 of bacteria was added to each well, and the samples were incubated for 18 to 24 h without shaking at 37°C.

[2] = system: ASEC 2 biofilm; settings: for MBIC50: crystal violet A595, 24 h, three independent experiments; for biofilm formation visualized with SYTO 9: antibiotics at 32 μM, 24 h, SYTO 9 staining (Fig. 3F)
Procedure: (§2) Crystal violet staining was performed to determine the degree of biofilm formation by the E. coli 25922, S. aureus 25923, and ASEC strains. E. coli 25922 and S. aureus 25923 were cultured overnight in LB and TSB media with aeration at 180 rpm, respectively. Bacterial suspensions with 0.2% glucose (5 × 10^5 CFU mL^−1) were added to a 96-well plate (30096, surface treatment; SPL Life Sciences) and incubated for 24 h at 37°C. The supernatant was removed and fixed with 100% methanol. Next, 100 μL of crystal violet was added to the plate and incubated to dye the cells for 1 h, followed by rinsing the cells three times with distilled water (dH2O). After the crystal violet was dissolved with 95% ethanol, the mass of biofilm formation at 595 nm was measured using a Versa Max microplate reader (Molecular Devices). The inhibitory effect of PN5 against biofilm formed by E. coli 25922, S. aureus 25923, and three MDR E. coli strains (ASEC 2, 16, and 18) were determined. These cells were cultured overnight in LB and TSB media. Bacterial suspensions (5 × 10^5 CFU mL^−1) containing 0.2% glucose were added to 96-well plates and PN5 was serially diluted to a final concentration of 32 μM. The minimal biofilm inhibitory concentration (MBIC) was determined in three independent experiments. The percentage of biofilm formation was measured using the equation (A595 of treated biofilm/A595 of untreated biofilm) × 100. Similarly, the MDR ASEC 1 to 19 strains were cultured overnight in LB medium and seeded into 96-well plates with medium containing 0.2% glucose at 5 × 10^5 CFU mL^−1 of the bacterial suspension. Biofilm staining was performed as described above. SYTO 9 (6 μM) fluorescence in LIVE/DEAD BacLight was used to visualize the degree of biofilm formation. […] After 24 h, the culture supernatant of the peptide and bacteria was discarded, and the pellet was fixed with 100% methanol. A fluorescence mixture of SYTO 9 and propidium iodide was then added to each well, and the fluorescence was evaluated with an EVOS FL color imaging system (Thermo Fisher Scientific) with a 4× objective ([22]).

[3] = system: ASEC 16 biofilm; settings: crystal violet A595, 24 h, three independent experiments
Procedure: as §2

[4] = system: ASEC 18 biofilm; settings: crystal violet A595, 24 h, three independent experiments
Procedure: as §2

[5] = system: RAW 264.7 cells; experiment: MTT cell viability; type: cell-based, mouse; settings: up to 200 μM, 24 h
Procedure: RAW 264.7 cells (mouse macrophage cells) were maintained in high-glucose Dulbecco’s modified Eagle medium (DMEM) (Welgene, Daegu, South Korea) supplemented with 10% fetal bovine serum (FBS) (Gibco) and 1% penicillin at 37°C in humidified 5% CO2. Cells (2 × 10^5 cells well^−1) were seeded into DMEM supplemented with 10% FBS medium in a 96-well plate. The MTT assay was performed after culturing the cells in 96-well plates at a density of 2 × 10^5 cells well^−1, followed by treatment with serially diluted PN5, magainin 2, and melittin. After 24 h, the medium was discarded, and 100 μL DMEM and 10% FBS medium containing 0.5 mg mL^−1 MTT were added to each well. After 4 h of incubation, the medium was discarded and dimethyl sulfoxide was added to each well to solubilize the formazan. The optical densities at 570 and 650 nm (OD570 and OD650, respectively) of the treated cells were compared to those of control cells. The hemolytic activity of the peptides was evaluated as the release of hemoglobin from an 8% mRBC suspension. A 100-μL aliquot of the 8% mRBC suspension was added to the wells of a 96-well plate, and 100 μL of peptide solution in phosphate-buffered saline (PBS) was added at a final peptide concentration of 200 μM. After incubation for 1 h at 37°C with shaking (50 rpm), the suspensions were centrifuged at 1,000 × g for 5 min. The absorbance of the supernatant was measured at 414 nm using a Versa Max microplate reader (Molecular Devices). As a control, no hemolysis and complete hemolysis were determined in PBS and 0.1% Triton X-100, respectively. The degree of hemolysis was calculated using the following equation as described in reference: %hemolysis=[(A414withpeptide-A414withPBS)/(A414with0.1%TritonX-100-A414 with PBS)] × 100

[6] = system: RAW 264.7 cells; experiment: IncuCyte Cytotox green time-dependent cytotoxicity; type: cell-based, mouse; settings: 200 μM, 24 h
Procedure: An IncuCyte cytotoxicity assay (Essen BioScience, Inc., Ann Arbor, MI, USA) was performed to evaluate time-dependent cytotoxicity. RAW 264.7 cells (2 × 10^5 cells well^−1) were seeded into 96-well culture plates and then treated with peptides and IncuCyte Cytotox green reagent (Essen BioScience, Inc.). Up to 200 μM PN5 and 25 μM melittin were used to treat RAW 264.7 cells, with the concentrations serially diluted by half. […] The cells were stained with IncuCyte Cytotox green reagent. The viability was measured using IncuCyte software (Essen BioScience, Inc.) ([56]).

[7] = system: ASEC strains (drug-resistant E. coli, ASEC 1 to 19); experiment: MIC, microdilution, summary over clinical isolates; type: cell-based; settings: Escherichia coli; cefotaxime and ceftazidime: 'mostly showed no activity'
Procedure: as §1

| Compound | MIC [1] | MBIC50 [2] | MBIC50 [3] | MBIC50 [4] | toxicity, MTT assay [5] | cytotoxicity, Cytotox green fluorescence [6] | biofilm formation visualized with SYTO 9 [2] | MIC [7] |
| --- | --- | --- | --- | --- | --- | --- | --- | --- |
| FKFLARTGKFL-NH2 [PN5] | 4 µM | 8 (10.61) μM | 16 (21.22) μM | 16 (21.22) μM | did not show toxicity | no toxicity | – | – |
| CO/N=C(\C(=O)N[C@@H]1C(=O)N2C(C(=O)O)=C(COC(C)=O)CS[C@H]12)c1csc(N)n1 [Cefotaxime] | – | >128 (>58.3) μM | 128 (58.3) μM | >128 (>58.3) μM | – | – | did not inhibit biofilm formation | > 32 µM |
| C[C@@H](O)[C@H]1C(=O)N2C(C(=O)O)=C(S[C@@H]3CN[C@H](C(=O)N(C)C)C3)[C@H](C)[C@H]12 [Meropenem] | – | 64 (24.54) μM | <2 (<0.77) μM | <2 (<0.77) μM | – | – | did not inhibit biofilm formation | – |
| CC(C)(O/N=C(\C(=O)N[C@@H]1C(=O)N2C(C(=O)[O-])=C(C[n+]3ccccc3)CS[C@H]12)c1csc(N)n1)C(=O)O [Ceftazidime] | – | >128 (>69.95) μM | >128 (>69.95) μM | >128 (>69.95) μM | – | – | did not inhibit biofilm formation | > 32 µM |
